This is an account of results in patent US9078916B2, “Method for producing and using a copolymer of sodium carboxymethyl cellulose and gossypol” (Limited Liability Company “Nearmedic Plus”, priority 2010, dated 2015).

Entries after “also recorded” stand apart in the source; their conditions may differ.

This series concerns 6-year children with autistic spectrum disorders and severe cognitive impairments. Put plainly: Complex therapy of 6-year children, copolymer tablets added to basic therapy with neuroleptics. Format: in vivo. From the text: The method can be used for the treatment of autistic disorders and cognitive impairments in 6-year children. A treatment regimen is selected by a specialist depending on the severity of a disease, condition and age of a patient. In particular, the treatment can be performed according to the following regimen: administration of a medicament 3 times per day for 5 days followed by the 5-day break. This ten-day cycle is repeated […]. The total duration of the treatment is 30 days. A dose of the active agent is 36 mg/day. Then, the course should be repeated.
The efficacy and safety of the use of sodium carboxymethyl cellulose polymer with a degree of substitution of 0.35 to 0.80 and gossypol, of formula (I) in a complex therapy of 6-year children with autistic spectrum disorders and severe cognitive impairments were studied. The children were administered with a medicament comprising a copolymer of sodium carboxymethyl cellulose with a degree of substitution of 0.35 to 0.80 and gossypol, of formula (I) (tablets containing 12 mg of the active agent, which composition is shown in Table 2) on the background of basic therapy with neuroleptics such as neuleptil, haloperidol, aminazine, teraligen, triphtazine, eglonil, azaleptin chlorprothixene. Antidepressants (e.g., anafranil) and anticonvulsants (finlepsin, trileptal, or topamax) were used in some cases. Neuroleptics, antidepressants and anticonvulsants were used in optimal therapeutic doses. […] When the therapy was supplemented with a medicament comprising a copolymer of sodium carboxymethyl cellulose with a degree of substitution of 0.35 to 0.80 and gossypol, of formula (I), the manifestations of encopresis and enuresis ceased, catatonic disorders decreased, cognitive functions improved, and speech appeared. In patients with mild to moderate autism, restricted repetitive behavior disappeared.

Where [1] appears, read: patients with very severe autism, therapy supplemented with the medicament.

For “sodium salt of copolymer of carboxymethyl cellulose with a degree of substitution of 0.35 to 0.80 and gossypol”, the “resistance to therapy with neuroleptics / psychotropic drugs” value (added to basic therapy, especially patients with very severe autism, 12 mg tablets) was “decreased; also recorded: elimination”. Under “in vivo”, the “negative side effects on a patient” value was “does not have negative side effects”; the tolerability result is reported as “well tolerable”; the “toxic and allergic reactions” value is listed as “not reported”. In addition, the restricted repetitive behavior result (patients with mild to moderate autism) is “disappeared”. For the same substance, under setting [1], the catatonic disorders entry is listed as “decreased”; the “manifestations of encopresis and enuresis” value was “ceased”; the speech result is reported as “appeared”. Moreover, for the setting “therapy supplemented with the medicament”, the cognitive functions result is reported as “improved; also recorded: significant improvement”. The “mental condition of the patients” value (when administering the medicament) was “improved”.
